Measurements taken from US20240408085A1, “COMPOUND FOR DEGRADATION OF BCL-2 FAMILY PROTEINS AND MEDICAL APPLICATION THEREOF” (XIZANG HAISCO PHARMACEUTICAL CO., LTD., priority 2021, published 2024).
Where two headings read alike, the source gives them in different places.

Experiments:
BCL-xL proteins = biological target: T1, BCL-xL proteins (Homo sapiens, UniProt Q07817); experiment: BCL-xL degradation activity in MOLT-4 cells (western blot, 16 h); type: cell-based
T1 construct: degradation effect on the BCL-xL proteins in MOLT-4 cells; host or cells: MOLT-4
T1 sequence (Q07817 whole entry): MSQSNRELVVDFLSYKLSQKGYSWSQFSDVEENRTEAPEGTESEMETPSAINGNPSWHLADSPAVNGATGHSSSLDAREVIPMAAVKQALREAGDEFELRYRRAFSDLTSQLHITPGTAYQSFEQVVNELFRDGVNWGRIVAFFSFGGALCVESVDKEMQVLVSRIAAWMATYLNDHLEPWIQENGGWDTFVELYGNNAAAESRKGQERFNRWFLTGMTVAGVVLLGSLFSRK
Experimental: MOLT-4 cells are acute lymphoblastic leukemia cell lines in humans. The cells were purchased from ATCC. Culture conditions: RPMI-1640+10% FBS+1% penicillin-streptomycin solution. The cells were cultured in a 37° C., 5% CO2 incubator. The cells were plated in a 12-well plate, with 2×10^5 cells/well. After plating, compounds at different concentrations were added and cultured in a 37° C., 5% CO2 incubator for 16 h. After the completion of culture, the cells were harvested and RIPA lysis buffer (beyotime, Cat. P0013B) was added. The cells were lysed on ice for 15 minutes and centrifuged at 12000 rpm at 4° C. for 10 minutes. The supernatant protein samples were collected and the protein was quantified by using the BCA kit (Beyotime, Cat. P0009). Then the protein was diluted to 0.8 mg/mL. The expressions of BCL-xL (CST, Cat. 2764S), BCL-2 (CST, Cat. 15071S) and the internal reference β-actin (CST, Cat. 3700S) were detected using a fully automated western blot quantitative analyzer (Proteinsimple). The expression level of BCL-xL or BCL-2 relative to the internal reference was calculated by using Compass software, and the DC50 value was calculated by using GraphPad Prism 8.0 software according to formula (1), wherein the Proteinadministration denoted the relative expression level of BCL-xL or BCL-2 in administration groups at different doses, and the Proteinvehicle denoted the relative expression level of BCL-xL or BCL-2 in the vehicle control group.
Protein %=Proteinadministration/Proteinvehicle×100% formula (1)

MOLT-4 cells = experiment: Cell proliferation activity in MOLT-4 cells (72 h, cell viability luminescence); type: cell-based, human; conditions: read-out: IC50 for the inhibition of MOLT-4 cell proliferation
In short: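 Human acute lymphoblastic leukemia cells were seeded at 5×10^3 cells/well in RPMI-1640 with 10% FBS. They were treated with serially varied compound concentrations for 72 h at 37° C., 5% CO2. A luminescent viability reagent was used for read-out. IC50 was derived relative to vehicle control; maximum inhibition was the inhibition rate at the highest concentration.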

Row | Compound | IC50 (MOLT-4 cells; Homo sapiens) [nM] | DC50 (BCL-xL proteins) [nM] | IC50 (MOLT-4 cells) [nM]
1 | Cc1ncsc1-c1ccc([C@H](C)NC(=O)[C@@H]2C[C@@H](O)CN2C(=O)[C@@H](NC(=O)CCCCCC(=O)N2C[C@H]3CN(CC[C@H](CSc4ccccc4)Nc4ccc(S(=O)(=O)NC(=O)c5ccc(N6CCN(CC7=C(c8ccc(Cl)cc8F)CCC(C)(C)C7)CC6)cc5)cc4S(=O)(=O)C(F)(F)F)C[C@H]3C2)C(C)(C)C)cc1 (relative stereo) [Compound 14, cis-(2S,4R)-1-((S)-2-(7-(5-((R)-3-((4-(N-(4-(4-((4′-chloro-2′-fluoro-4,4-dimethyl-3,4,5,6-tetrahydro-[1,1′-biphenyl]-2-yl)methyl)piperazin-1-yl)benzoyl)sulfamoyl)-2-((trifluoromethyl)sulfonyl)phenyl)amino)-4-(phenylthio)butyl)hexahydropyrrolo[3,4-c]pyrrol-2(1H)-yl)-7-oxoheptanamido)-3,3-dimethylbutanoyl)-4-hydroxy-N—((S)-1-(4-(4-methylthiazol-5-yl)phenyl)ethyl) pyrrolidine-2-carboxamide] |  | 8.1 | < 500
2 | Cc1ncsc1-c1ccc([C@H](C)NC(=O)[C@@H]2C[C@@H](O)CN2C(=O)[C@@H](NC(=O)CCCCCC(=O)N2C[C@H]3CN(CC[C@H](CSc4ccccc4)Nc4ccc(S(=O)(=O)NC(=O)c5ccc(N6CCN(CC7=C(c8ccc(Cl)cc8)CCC(C)(C)C7)CC6)cc5)cc4S(=O)(=O)C(F)(F)F)C[C@H]3C2)C(C)(C)C)cc1 [Compound 8, cis-(2S,4R)-1-((2S)-2-(7-(5-((R)-3-((4-(N-(4-(4-((4′-chloro-4,4-dimethyl-3,4,5,6-tetrahydro-[1,1′-biphenyl]-2-yl)methyl)piperazin-1-yl)benzoyl)sulfamoyl)-2-((trifluoromethyl)sulfonyl)phenyl)amino)-4-(phenylthio)butyl)hexahydropyrrolo[3,4-c]pyrrol-2(1H)-yl)-7-oxoheptanamido)-3,3-dimethylbutanoyl)-4-hydroxy-N—((S)-1-(4-(4-methylthiazol-5-yl)phenyl)ethyl)pyrrolidine-2-carboxamide] | < 500 | 8.8 | 
3 | Cc1ncsc1-c1ccc([C@H](C)NC(=O)[C@@H]2C[C@@H](O)CN2C(=O)[C@@H](NC(=O)CCCCCCC(=O)N2C[C@H]3CN(CC[C@H](CSc4ccccc4)Nc4ccc(S(=O)(=O)NC(=O)c5ccc(N6CCN(CC7=C(c8ccc(Cl)cc8)CCCCC7)CC6)cc5)cc4S(=O)(=O)C(F)(F)F)C[C@H]3C2)C(C)(C)C)cc1 [Compound 42, cis-(2S,4R)-1-((S)-2-(8-(5-((R)-3-((4-(N-(4-(4-((2-(4-chlorophenyl)cyclohept-1-en-1-yl)methyl)piperazin-1-yl)benzoyl)sulfamoyl)-2-((trifluoromethyl)sulfonyl)phenyl)amino)-4-(phenylthio)butyl)hexahydropyrrolo[3,4-c]pyrrol-2(1H)-yl)-8-oxooctanamido)-3,3-dimethylbutanoyl)-4-hydroxy-N—((S)-1-(4-(4-methylthiazol-5-yl)phenyl)ethyl)pyrrolidine-2-carboxamide] | < 500 |  | 
4 | Cc1ncsc1-c1ccc([C@H](C)NC(=O)[C@@H]2C[C@@H](O)CN2C(=O)[C@@H](NC(=O)CCCCCC(=O)N2CCN(CC[C@H](CSc3ccccc3)Nc3ccc(S(=O)(=O)NC(=O)c4ccc(N5CCN(CC6=C(c7ccc(Cl)cc7)CCCCC6)CC5)cc4)cc3S(=O)(=O)C(F)(F)F)CC2)C(C)(C)C)cc1 [Trifluoroacetate of compound 6, (2S,4R)-1-((S)-2-(7-(4-((R)-3-((4-(N-(4-(4-((2-(4-chlorophenyl)cyclohept-1-en-1-yl)methyl)piperazin-1-yl)benzoyl)sulfamoyl)-2-((trifluoromethyl)sulfonyl)phenyl)amino)-4-(phenylthio)butyl)piperazin-1-yl)-7-oxoheptanamido)-3,3-dimethylbutanoyl)-4-hydroxy-N—((S)-1-(4-(4-methylthiazol-5-yl)phenyl)ethyl)pyrrolidine-2-carboxamide] | < 500 |  | 

Further lines, with some results ahead:

Row | IC50 (MOLT-4 cells; Homo sapiens) [nM] | Compound | DC50 (BCL-xL proteins) [nM] | IC50 (MOLT-4 cells) [nM]
5 | < 500 | Cc1ncsc1-c1ccc([C@H](C)NC(=O)[C@@H]2C[C@@H](O)CN2C(=O)[C@@H](NC(=O)CCCCCC(=O)N2CCN(CC[C@H](CSc3ccccc3)Nc3ccc(S(=O)(=O)NC(=O)c4ccc(N5CCN(C/C6=C(\c7ccc(Cl)cc7)CCCCCC6)CC5)cc4)cc3S(=O)(=O)C(F)(F)F)CC2)C(C)(C)C)cc1 [Compound 43, (2S,4R)-1-((S)-2-(7-(4-((R)-3-((4-(N-(4-(4-((2-(4-chlorophenyl)cyclooct-1-en-1-yl)methyl)piperazin-1-yl)benzoyl)sulfamoyl)-2-((trifluoromethyl)sulfonyl)phenyl)amino)-4-(phenylthio)butyl)piperazin-1-yl)-7-oxoheptanamido)-3,3-dimethylbutanoyl)-4-hydroxy-N—((S)-1-(4-(4-methylthiazol-5-yl)phenyl)ethyl)pyrrolidine-2-carboxamide] |  | 
6 | < 500 | O=C1CCC(N2C(=O)c3ccc(N4CC(CN5CCN(CC[C@H](CSc6ccccc6)Nc6ccc(S(=O)(=O)NC(=O)c7ccc(N8CCN(CC9=C(c%10ccc(Cl)cc%10)CCCCC9)CC8)cc7)cc6S(=O)(=O)C(F)(F)F)CC5)C4)cc3C2=O)C(=O)N1 (stereo partly drawn) [Compound 44, 4-(4-((2-(4-chlorophenyl)cyclohept-1-en-1-yl)methyl)piperazin-1-yl)-N-((4-(((2R)-4-(4-((1-(2-(2,6-dioxopiperidin-3-yl)-1,3-dioxoisoindolin-5-yl)azetidin-3-yl)methyl)piperazin-1-yl)-1-(phenylthio)butan-2-yl)amino)-3-((trifluoromethyl)sulfonyl)phenyl)sulfonyl)benzamide] |  | 
7 | < 500 | O=C1CCC(N2C(=O)c3ccc(N4CCC(CN5CCN(CC[C@H](CSc6ccccc6)Nc6ccc(S(=O)(=O)NC(=O)c7ccc(N8CCN(CC9=C(c%10ccc(Cl)cc%10)CCCCC9)CC8)cc7)cc6S(=O)(=O)C(F)(F)F)CC5)CC4)cc3C2=O)C(=O)N1 (stereo partly drawn) [Compound 45, 4-(4-((2-(4-chlorophenyl)cyclohept-1-en-1-yl)methyl)piperazin-1-yl)-N-((4-(((2R)-4-(4-((1-(2-(2,6-dioxopiperidin-3-yl)-1,3-dioxoisoindolin-5-yl)piperidin-4-yl)methyl)piperazin-1-yl)-1-(phenylthio)butan-2-yl)amino)-3-((trifluoromethyl)sulfonyl)phenyl)sulfonyl)benzamide] |  | 
8 | < 500 | Cc1ncsc1-c1ccc([C@H](C)NC(=O)[C@@H]2C[C@@H](O)CN2C(=O)[C@@H](NC(=O)CCCCCC(=O)N2CCN(CC[C@H](CSc3ccccc3)Nc3ccc(S(=O)(=O)NC(=O)c4ccc(N5CCN(CC6=C(c7ccc(C#N)cc7)CCC(C)(C)C6)CC5)cc4)cc3S(=O)(=O)C(F)(F)F)CC2)C(C)(C)C)cc1 [Trifluoroacetate of compound 4, (2S,4R)-1-((S)-2-(7-(4-((R)-3-((4-(N-(4-(4-((4′-cyano-4,4-dimethyl-3,4,5,6-tetrahydro-[1,1′-biphenyl]-2-yl)methyl)piperazin-1-yl)benzoyl)sulfamoyl)-2-((trifluoromethyl)sulfonyl)phenyl)amino)-4-(phenylthio)butyl)piperazin-1-yl)-7-oxoheptanamido)-3,3-dimethylbutanoyl)-4-hydroxy-N—((S)-1-(4-(4-methylthiazol-5-yl)phenyl)ethyl)pyrrolidine-2-carboxamide] |  | 
9 | < 500 | Cc1ncsc1-c1ccc([C@H](C)NC(=O)[C@@H]2C[C@@H](O)CN2C(=O)[C@@H](NC(=O)CCCCCC(=O)N2CCC3(CC2)CN(CC[C@H](CSc2ccccc2)Nc2ccc(S(=O)(=O)NC(=O)c4ccc(N5CCN(CC6=C(c7ccc(Cl)cc7)CCC(C)(C)C6)CC5)cc4)cc2S(=O)(=O)C(F)(F)F)C3)C(C)(C)C)cc1 [Trifluoroacetate of compound 9, (2S,4R)-1-((S)-2-(7-(2-((R)-3-((4-(N-(4-(4-((4′-chloro-4,4-dimethyl-3,4,5,6-tetrahydro-[1,1′-biphenyl]-2-yl)methyl)piperazin-1-yl)benzoyl)sulfamoyl)-2-((trifluoromethyl)sulfonyl)phenyl)amino)-4-(phenylthio)butyl)-2,7-diazaspiro[3.5]nonan-7-yl)-7-oxoheptanamido)-3,3-dimethylbutanoyl)-4-hydroxy-N—((S)-1-(4-(4-methylthiazol-5-yl)phenyl)ethyl)pyrrolidine-2-carboxamide] |  | 
